Source: paper PMC12717099, “Peptidoglycan recruitment by a penicillin binding protein” (Nature Communications, 2025)

Columns and labels:
PBP5 = experiment: Bocillin FL fluorescence polarization binding competition assay; parameters: species or system Enterococcus faecium; settings: antibiotic fixed 60 μM, PBP5 3.6 µM, Bocillin FL 30 nM, 37 °C, n = 3
Method: The assays were performed in low-volume 384-well black polystyrene assay plate (Corning, 4511), using assay buffer (100 mM Na-phosphate pH 7.0, 0.01% Triton X-100) to prevent the adsorption of Bocillin FL (Invitrogen, B13233) to the plate. Bocillin FL was dissolved in DMSO and stored as a 1 mM stock in the −20 °C freezer. Fresh working stock of Bocillin FL was made each day for the assays by diluting the stock with the assay buffer for a final concentration of 30 nM. The final concentration of PBP5 for the assays was 3.6 µM. The antibiotic, either penicillin G, ceftaroline or ceftriaxone, was added to PBP5 before the reactions were initiated by the addition of Bocillin FL. The plate was sealed with ThermalSeal RT silicone adhesive film (EXCEL Scientific, TSS-RTQ-100) to prevent evaporation during the measurements. Reaction without PBP5 (Bocillin FL only) was used as negative control. All reactions were carried out at 37 °C in a CLARIOStar plate reader (BMG Labtech) equipped with the 482 nm excitation filter, 530 nm emission filter and a dichroic filter LP504. The focal height was adjusted to 11.3 mm and the gain was set to 10 mP using the negative control. Measurements were made at 40 s intervals for up to 75 min with 100 flashes per measurement. Three replicates were made for each treatment in each run, and the experiment was repeated 3 times.

[1] = tested on: E. faecium D344SRF, Wild Type; assay type: cell-based, Enterococcus faecium; settings: strain Wild Type; disks Ampicillin 10 μg, Penicillin 10 U, Ceftriaxone 30 μg; BHI agar, 37 °C, 24 h; n=3
Method: (§1) E. faecium strains were streaked fresh from −80 °C stored glycerol stocks onto brain heart infusion (BHI) agar plates and incubated for 18 h at 37 °C. Strains harboring the plasmid derivatives were grown under antibiotic pressure on agar plates containing kanamycin at 1500 µg/ml. A single colony was inoculated into BHI or BHI-kanamycin (1500 µg/ml) for overnight cultures (18 h).
(§2) Antibiotic disks used were manufactured by BD BBL^TM. Disk diffusion assays were performed according to the Clinical and Laboratory Standards Institute (CLSI) guidance. Overnight cultures were inoculated into 3 ml of BHI or BHI-kanamycin (1500 µg/ml) broth with a dilution of 1:100 and incubated until an OD600 of ~0.5 was reached. The OD600 was adjusted to 0.01 to get the inoculum suspension. […] The plates were incubated at 37 °C and the zones of inhibition were measured after 24 h. All experiments were conducted in triplicate.

[2] = tested on: E. faecium D344SRF pCWR624Δpbp5_pbp5_V2; experiment: Disk diffusion assay, pbp5_V2; assay type: cell-based, Enterococcus faecium; settings: strain pbp5_V2 (N523A_Q627A); 37 °C, 24 h; n=3
Method: (§3) The synthetic genes were purchased from GeneWiz (South Plainfield, NJ). The ribosome binding site sequence AGGAGG (Shine-Dalgarno), and a string of five A’s followed by the sequence […], that corresponds to the first 15 bp found in pbp5 from E. faecium C68 were added upstream of the START codon. The terminator sequence […] was added downstream of the STOP codon. BamHI restriction sites were added to the flanking 5′ and 3′ ends. The synthetic genes were inserted into the vector pCWR624Δpbp5. This vector was derived from pCWR624[10], in which the pbp5 gene from D366 was excised by digestion with BamHI followed by re-ligation of the vector, allowing subsequent insertion of modified synthetic pbp5s into the BamHI site downstream of ftsWEfm and psr from E. faecium C68[10]. The synthetic genes were inserted in a BamHI site located downstream of psr. The proper orientation was confirmed by PCR amplification using the forward primer OR_pbp5_FOR_1 (5′-[…]-3′) and the reverse primer OR_pbp5_REV_1 (5′-[…]-3′). Plasmids were sequence verified for the specific binding site mutations. The resulting constructions were electroporated into the natural pbp5(-) mutant E. faecium D344SRF with a selection on brain heart infusion agar (BHI) plates containing kanamycin (1500 µg/ml).
as §1
as §2, with “reached.” for “reached. The OD600 was adjusted to 0.01 to get the inoculum suspension.”, “All experiments were conducted in triplicate.” left out

[3] = tested on: E. faecium D344SRF pCWR624Δpbp5_pbp5_V4; experiment: MIC by broth microdilution, pbp5_V4; assay type: cell-based, Enterococcus faecium; settings: strain pbp5_V4 (D530A_L533A_W457A); 37 °C, 20 h; n=3
Method: as §3, with “The resulting constructions were electroporated into the natural pbp5(-) mutant E. faecium D344SRF with a selection on brain heart infusion agar (BHI) plates containing kanamycin (1500 µg/ml).” left out
MIC determination was performed using a standard broth microdilution technique in duplicate from independent cultures. […] Plates were incubated at 37 °C for 20 h and read by eye. […]

[4] = tested on: E. faecium D344SRF pCWR624Δpbp5_pbp5_V6; experiment: Disk diffusion assay, pbp5_V6; assay type: cell-based, Enterococcus faecium; settings: strain pbp5_V6 (E284A_E291A_S294A_N295A); 37 °C, 24 h; n=3
Method: as §3, §1
as §2, with “reached.” for “reached. The OD600 was adjusted to 0.01 to get the inoculum suspension.”, “All experiments were conducted in triplicate.” left out

[5] = tested on: E. faecium D344SRF pCWR624Δpbp5 (empty plasmid); experiment: MIC by broth microdilution, pCWR624Δpbp5; assay type: cell-based, Enterococcus faecium; settings: strain pCWR624Δpbp5; 37 °C, 20 h; n=3
Method: as §3, §1
(§4) MIC determination was performed using a standard broth microdilution technique in duplicate from independent cultures. Overnight cultures were inoculated into 3 ml of BHI or BHI-kanamycin (1500 µg/ml) broth in a dilution of 1:100 and incubated until an OD600 of ~0.5 was reached. Cultures were diluted 1:1000 and inoculated into the 96-well plates with the corresponding antibiotics to be tested. Plates were incubated at 37 °C for 20 h and read by eye. […]

[6] = tested on: E. faecium D344SRF pCWR624 (PBP5 plasmid); experiment: MIC by broth microdilution, pCWR624; assay type: cell-based, Enterococcus faecium; settings: strain pCWR624; 37 °C, 20 h; n=3
Method: as §3, §1, §4

[7] = tested on: E. faecium D344SRF pCWR624Δpbp5_pbp5_V5; experiment: MIC by broth microdilution, pbp5_V5; assay type: cell-based, Enterococcus faecium; settings: strain pbp5_V5 (Q396A_E397A); 37 °C, 20 h; n=3
Method: as §3, §1, §4

[8] = tested on: E. faecium D344SRF pCWR624Δpbp5 (empty plasmid); experiment: Disk diffusion assay, pCWR624Δpbp5; assay type: cell-based, Enterococcus faecium; settings: strain pCWR624Δpbp5; 37 °C, 24 h; n=3
Method: as §3, §1
as §2, with “reached.” for “reached. The OD600 was adjusted to 0.01 to get the inoculum suspension.”, “All experiments were conducted in triplicate.” left out

[9] = tested on: E. faecium D344SRF pCWR624 (PBP5 plasmid); experiment: Disk diffusion assay, pCWR624; assay type: cell-based, Enterococcus faecium; settings: strain pCWR624; 37 °C, 24 h; n=3
Method: as §3, §1
as §2, with “reached.” for “reached. The OD600 was adjusted to 0.01 to get the inoculum suspension.”, “All experiments were conducted in triplicate.” left out

[10] = tested on: E. faecium D344SRF pCWR624Δpbp5_pbp5_V1; experiment: Disk diffusion assay, pbp5_V1; assay type: cell-based, Enterococcus faecium; settings: strain pbp5_V1 (N523A); 37 °C, 24 h; n=3
Method: as §3, §1
as §2, with “reached.” for “reached. The OD600 was adjusted to 0.01 to get the inoculum suspension.”, “All experiments were conducted in triplicate.” left out

What does the source list for `CO/N=C(\C(=O)N[C@@H]1C(=O)N2C(C(=O)O)=C(CSc3nc(=O)c(=O)[nH]n3C)CS[C@H]12)c1csc(N)n1` [Ceftriaxone, ceftriaxone]?
binding/inhibition of PBP5, in words (PBP5): does not bind/inhibit PBP5; binding/inhibition of PBP5, in words (PBP5; listed as ceftriaxone): does not bind; Zone Size (mm) [Range] [1]: 20 [20-26] mm; Zone Size (mm) [Range] [2]: 24 [24-26] mm; MIC (µg/ml) [Range] [3]: 25 [25-50] µg/ml; Zone Size (mm) [Range] [4]: 0 [0] mm; MIC (µg/ml) [Range] [5]: 50 [25-100] µg/ml; MIC (µg/ml) [Range] [6]: > 3200 [3200->3200] µg/ml; MIC (µg/ml) [Range] [7]: > 3200 [>3200] µg/ml; Zone Size (mm) [Range] [8]: 24 [22-28] mm; Zone Size (mm) [Range] [9]: 0 [0] mm; Zone Size (mm) [Range] [10]: 0 [0] mm
